Results as given in ChEMBL document CHEMBL5696443 (Clin Cancer Res, 2016).
Blank lines part the entries; values can stand above or below the compound they belong to. Activity calls are given as the source filed them. No cut-off for these calls is given here.

Columns and labels:
[1] = Protein binding in human plasma assessed as unbound fraction at 600 mg, administered twice a day; format: ADME, cell-free
[2] = Average plasma concentration in CB-17/SCID mouse implanted with mouse BaF3 cells expressing EML4-ALK G1202R mutant at 60 mg/kg, po administered once daily for 7 days by LC-MS/MS analysis; format: ADME, organism-based; conditions: in vivo, 168 h, time 7 day
BaF3 [3] = assay: animal or person; conditions: Mus musculus, BaF3, po, 192 h, read-out: TGI
[4] = Toxicity in CB-17/SCID mouse implanted with ALK positive mouse BaF3 cells expressing EML4-ALK G1202R mutant assessed as effect on body weight at 60 mg/kg, po administered once daily and measured after 6 days; format: organism-based; conditions: in vivo, 144 h, time 6 day
in vitro = conditions: mouse, BaF3 cells
[5] = Protein binding in human plasma at 600 mg, administered twice a day; format: ADME, cell-free; conditions: read-out: PPB (converted)
BaF3 [6] = assay: Antitumor activity against mouse BaF3 cells expressing native EML4-ALK implanted in mouse assessed as tumor regression at 60 mg/kg, po administered once daily and measured after 8 days relative to control; format: functional; conditions: time 8 day
[7] = test system: EML4-ALK (Homo sapiens), Q9UM73+Q9HC35 [G1202R]; conditions: BaF3, time 3-5 weeks
[8] = test system: EML4-ALK (Homo sapiens), Q9UM73+Q9HC35 [D1203N]; conditions: BaF3, dose 1000.0 nmol/L, time 3-5 weeks
[9] = test system: EML4-ALK (Homo sapiens), Q9UM73+Q9HC35 [L1198F]; conditions: BaF3, time 3-5 weeks
[10] = test system: EML4-ALK (Homo sapiens), Q9UM73+Q9HC35 [F1174L]; conditions: BaF3, dose 1000.0 nmol/L, time 3-5 weeks
[11] = test system: EML4-ALK (Homo sapiens), Q9UM73+Q9HC35 [S1206Y]; conditions: BaF3, time 3-5 weeks
[12] = test system: EML4-ALK (Homo sapiens), Q9UM73+Q9HC35 [G1202R]; conditions: BaF3, dose 1000.0 nmol/L, time 3-5 weeks
[13] = test system: EML4-ALK (Homo sapiens), Q9UM73+Q9HC35 [L1198F]; conditions: BaF3, dose 1000.0 nmol/L, time 3-5 weeks
[14] = test system: EML4-ALK (Homo sapiens), Q9UM73+Q9HC35 [L1198F]; conditions: BaF3, dose 500.0 nmol/L, time 3-5 weeks
[15] = test system: EML4-ALK (Homo sapiens), Q9UM73+Q9HC35 [F1174I]; conditions: BaF3, dose 200.0 nmol/L, time 3-5 weeks
[16] = Protein binding in human plasma assessed as unbound fraction at 750 mg, administered once a day; format: ADME, cell-free
[17] = test system: EML4-ALK (Homo sapiens), Q9UM73+Q9HC35 [L1152R]; conditions: BaF3, time 3-5 weeks
[18] = test system: EML4-ALK (Homo sapiens), Q9UM73+Q9HC35 [L1196M]; conditions: BaF3, dose 1000.0 nmol/L, time 3-5 weeks
[19] = test system: EML4-ALK (Homo sapiens), Q9UM73+Q9HC35 [V1180L]; conditions: BaF3, dose 1000.0 nmol/L, time 3-5 weeks
[20] = test system: EML4-ALK (Homo sapiens), Q9UM73+Q9HC35 [F1174C]; conditions: BaF3, dose 200.0 nmol/L, time 3-5 weeks
[21] = test system: EML4-ALK (Homo sapiens), Q9UM73+Q9HC35 [S1206F]; conditions: BaF3, dose 1000.0 nmol/L, time 3-5 weeks
BaF3 [22] = assay: Antitumor activity against mouse BaF3 cells expressing native EML4-ALK implanted in mouse assessed as tumor growth inhibition at 50 mg/kg, po administered once daily and measured after 8 days relative to control; format: functional; conditions: BaF3, 192 h, time 8 day, read-out: TGI
[23] = test system: EML4-ALK (Homo sapiens), Q9UM73+Q9HC35 [S1206Y]; conditions: BaF3, dose 1000.0 nmol/L, time 3-5 weeks
[24] = test system: EML4-ALK (Homo sapiens), Q9UM73+Q9HC35 [L1152P]; conditions: BaF3, time 3-5 weeks
[25] = Protein binding in human plasma at 750 mg, administered once a day; format: ADME, cell-free; conditions: read-out: PPB (converted)
[26] = test system: EML4-ALK (Homo sapiens), Q9UM73+Q9HC35 [L1152P]; conditions: BaF3, dose 1000.0 nmol/L, time 3-5 weeks
[27] = test system: EML4-ALK (Homo sapiens), Q9UM73+Q9HC35 [F1174C]; conditions: BaF3, dose 1000.0 nmol/L, time 3-5 weeks
[28] = test system: EML4-ALK (Homo sapiens), Q9UM73+Q9HC35 [G1269A]; conditions: BaF3, dose 1000.0 nmol/L, time 3-5 weeks
[29] = test system: EML4-ALK (Homo sapiens), Q9UM73+Q9HC35 [L1152R]; conditions: BaF3, dose 1000.0 nmol/L, time 3-5 weeks
[30] = Toxicity in CB-17/SCID mouse implanted with ALK positive mouse BaF3 cells expressing EML4-ALK G1202R mutant assessed as effect on body weight at 50 mg/kg, po administered once daily and measured after 6 days; format: organism-based; conditions: in vivo, 144 h, time 6 day
[31] = test system: EML4-ALK (Homo sapiens), Q9UM73+Q9HC35 [F1174V]; conditions: BaF3, dose 200.0 nmol/L, time 3-5 weeks
[32] = test system: EML4-ALK (Homo sapiens), Q9UM73+Q9HC35 [S1206A]; conditions: BaF3, dose 200.0 nmol/L, time 3-5 weeks
[33] = test system: EML4-ALK (Homo sapiens), Q9UM73+Q9HC35 [E1210K]; conditions: BaF3, dose 1000.0 nmol/L, time 3-5 weeks
[34] = test system: EML4-ALK (Homo sapiens), Q9UM73+Q9HC35 [UNDEFINED MUTATION]; conditions: BaF3, dose 1000.0 nmol/L, time 3-5 weeks
BaF3 [35] = assay: animal or person; conditions: Mus musculus, BaF3, po, 192 h, read-out: TGI; remark: listed apart in the source
[36] = test system: EML4-ALK (Homo sapiens), Q9UM73+Q9HC35 [S1206F]; conditions: BaF3, time 3-5 weeks
[37] = test system: EML4-ALK (Homo sapiens), Q9UM73+Q9HC35 [L1198F]; conditions: BaF3, dose 200.0 nmol/L, time 3-5 weeks
[38] = test system: EML4-ALK (Homo sapiens), Q9UM73+Q9HC35 [C1156Y]; conditions: BaF3, dose 1000.0 nmol/L, time 3-5 weeks
[39] = test system: EML4-ALK (Homo sapiens), Q9UM73+Q9HC35 [F1174V]; conditions: BaF3, dose 1000.0 nmol/L, time 3-5 weeks
[40] = test system: EML4-ALK (Homo sapiens), Q9UM73+Q9HC35 [I1171N]; conditions: BaF3, dose 1000.0 nmol/L, time 3-5 weeks
[41] = test system: EML4-ALK (Homo sapiens), Q9UM73+Q9HC35 [F1174C]; conditions: BaF3, time 3-5 weeks

- fraction unbound [1]: 0.003
- Cave [2]: 8.817 µM
- IC50 (in vitro): 2070 nM
- IC90 (in vitro): 7460 nM
- fraction unbound [5]: 0.003
Compound: CCc1cc2c(cc1N1CCC(N3CCOCC3)CC1)C(C)(C)c1[nH]c3cc(C#N)ccc3c1C2=O [ALECTINIB]
- inhibition in vivo at 60 mg/kg (BaF3 [3]): 0%
- Activity [4]: Non-Toxic
- Activity (BaF3 [6]): 95%

- IC90 [7]: 1040 nM
- inhibition [8]: Active
- IC90 [9]: 1320 nM
- inhibition [10]: Active
- IC90 [11]: 99 nM
- inhibition [12]: Active
- inhibition [13]: Active
- inhibition [14]: inactive
- inhibition [15]: inactive
- fraction unbound [16]: 0.028
- IC90 [17]: 1270 nM
- inhibition [18]: Active
- inhibition [19]: Active
- inhibition [20]: inactive
- inhibition [21]: Active
- inhibition [23]: Active
- IC90 [24]: 1230 nM
- fraction unbound [25]: 0.028
- inhibition [26]: Active
- inhibition [27]: Active
- inhibition [28]: Active
- inhibition [29]: Active
- IC50 (in vitro): 1670 nM
- IC90 (in vitro): 2840 nM
- inhibition [31]: inactive
- inhibition [32]: inactive
- inhibition [33]: Active
- inhibition [34]: Active
- IC90 [36]: 99 nM
- inhibition [37]: inactive
- inhibition [38]: Active
- inhibition [39]: Active
- inhibition [40]: Active
- IC90 [41]: 229 nM
Compound: Cc1cc(Nc2ncc(Cl)c(Nc3ccccc3S(=O)(=O)C(C)C)n2)c(OC(C)C)cc1C1CCNCC1 [CERITINIB]
- inhibition in vivo at 50 mg/kg (BaF3 [22]): 97%
- Activity [30]: Non-Toxic
- inhibition in vivo at 50 mg/kg (BaF3 [35]): 14%
